Laboratory results taken from patent US12480137B2, “Plants having increased tolerance to herbicides” (BASF SE, priority 2014, dated 2025).

Assays:
Assay type in all cases: in vivo, Arabidopsis thaliana
[1] = test system: Cesa3_S1037F, fpx1-2 mutant line; experiment: Greenhouse phytotox, pre-emergent treatment
Outline: (§1)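 Tolerance to cellulose biosynthesis inhibitors is assessed on M2 or M3 generation Arabidopsis grown in a greenhouse. Example inhibitors are fluorinated N4-aryl triazine-2,4-diamines, including N4-(4-bromo-2,3,5,6-tetrafluoro-phenyl)-6-(1-fluoro-1-methyl-ethyl)-1,3,5-triazine-2,4-diamine.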

[2] = test system: Cesa1_G1013R, fpx2-1 mutant line; experiment: Greenhouse phytotox, pre-emergent treatment
Outline: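 Greenhouse tests on M2 or M3 Arabidopsis plants for tolerance to cellulose biosynthesis-inhibiting herbicides, e.g. pentafluorophenyl-, tetrafluorophenyl- or chloro-trifluoropyridyl-substituted 1,3,5-triazine-2,4-diamines. Treatment given pre-emergence or post-emergence 6 weeks after sowing.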

[3] = test system: Cesa3_S1040L, fpx1-1 mutant line; experiment: Greenhouse phytotox, pre-emergent treatment
Outline: as §1

[4] = test system: A. thaliana WT L. erecta; experiment: Greenhouse phytotox, pre-emergent treatment
Outline: as §1

[5] = test system: Cesa3_S983F, fpx1-3 mutant line; experiment: Greenhouse phytotox, pre-emergent treatment
Outline: as §1

[6] = test system: transgenic Arabidopsis plants, construct AtCESA1_G1013R; experiment: Growth inhibition of transgenic Arabidopsis in 48-well plates, tolerance factor from IC50; conditions: SEQ ID NO 1, substitution G1013R, growth inhibition seven to ten days after seeding
Source text: (§2) For transformation of Arabidopsis thaliana, wildtype or mutated cellulose synthase sequences based on one of the following sequences SEQ ID NO: 72, 73, 74, 75, 76, or 77, are cloned with standard cloning techniques as described in Sambrook et al. (Molecular cloning (2001) Cold Spring Harbor Laboratory Press) in a binary vector containing resistance marker gene cassette (AHAS) and mutated cellulose synthase sequence (marked as GOI) in between ubiquitin promoter (PcUbi) and nopaline synthase terminator (NOS) sequence. Binary plasmids are introduced to Agrobacterium tumefaciens for plant transformation. Arabidopsis thaliana are transformed with wildtype or mutated cellulose synthase sequences by floral dip method as decribed by McElver and Singh (WO 2008/124495). Transgenic Arabidopsis plants are subjected to TaqMan analysis for analysis of the number of integration loci.
(§3) Transgenic Arabidopsis thaliana plants are assayed for improved tolerance to azine herbicides like e. g. 6-cyclopentyl-N4-(2,3,4,5,6-pentafluorophenyl)-1,3,5-triazine-2,4-diamine in 48-well plates. Therefore, T2 seeds are surface sterilized by stirring for 5 min in ethanol+water (70+30 by volume), rinsing one time with ethanol+water (70+30 by volume) and two times with sterile, deionized water. The seeds are resuspended in 0.1% agar dissolved in water (w/v) Four to five seeds per well are plated on solid nutrient medium consisting of half-strength murashige skoog nutrient solution, pH 5.8 (Murashige and Skoog (1962) Physiologia Plantarum 15: 473-497). Compounds are dissolved in dimethylsulfoxid (DMSO) and added to the medium prior solidification (final DMSO concentration 0.1%). Multi well plates are incubated in a growth chamber at 22° C., 75% relative humidity and 110 μmol Phot*m^−2*s^−1 with 14:10 h light:dark photoperiod. Growth inhibition is evaluated seven to ten days after seeding in comparison to wild type plants. Tolerance factors are calculated based on IC50 values of growth inhibition of transformed versus non-transformed Arabidopsis plants.

[7] = test system: transgenic Arabidopsis plants, construct AtCESA3_wt; experiment: as above; conditions: SEQ ID NO 3, growth inhibition seven to ten days after seeding
Source text: as §2, §3

[8] = test system: transgenic Arabidopsis plants, construct AtCESA3_S1040L; experiment: as above; conditions: SEQ ID NO 3, substitution S1040L, growth inhibition seven to ten days after seeding
Source text: as §2, §3

[9] = test system: transgenic Arabidopsis plants, construct AtCESA1 wt; experiment: as above; conditions: SEQ ID NO 1, growth inhibition seven to ten days after seeding
Source text: as §2, §3

[10] = test system: transgenic Arabidopsis plants, construct AtCESA3_S1037F; experiment: as above; conditions: SEQ ID NO 3, substitution S1037F, growth inhibition seven to ten days after seeding
Source text: as §2, §3

[11] = test system: Cesa3_S1037F, fpx1-2 mutant line; experiment: Greenhouse phytotox, post-emergent treatment 6 weeks after sowing
Method: (§4) Additionally, M2 or M3 Arabidopsis plants are tested for improved tolerance to cellulose biosynthesis-inhibiting herbicides in greenhouse studies (e. g. with the following cellulose biosynthesis-inhibiting herbicides: 6-cyclopentyl-N4-(2,3,4,5,6-pentafluorophenyl)-1,3,5-triazine-2,4-diamine; 6-(1-fluoro-1-methyl-ethyl)-N4-(2,3,4,5,6-pentafluorophenyl)-1,3,5-triazine-2,4-diamine; N4-(4-chloro-3,5,6-trifluoro-2-pyridyl)-6-(1-fluoro-1-methyl-ethyl)-1,3,5-triazine-2,4-diamine; 6-(2,6-difluorophenyl)-N4-(2,3,5,6-tetrafluorophenyl)-1,3,5-triazine-2,4-diamine; N4-(4-bromo-2,3,5,6-tetrafluoro-phenyl)-6-(1-fluoro-1-methyl-ethyl)-1,3,5-triazine-2,4-diamine.

[12] = test system: Cesa1_G1013R, fpx2-1 mutant line; experiment: as above
Method: as §4

[13] = test system: Cesa1_G1009D, fpx2-3 mutant line; experiment: as above
Method: as §4

[14] = test system: Cesa1_P1010L, fpx2-2 mutant line; experiment: as above
Method: as §4

[15] = test system: Cesa3_S1040L, fpx1-1 mutant line; experiment: as above
Method: as §4

[16] = test system: A. thaliana WT L. erecta; experiment: as above
Method: as §4

[17] = test system: Cesa3_S983F, fpx1-3 mutant line; experiment: as above
Method: as §4

Nc1nc(Nc2c(F)c(F)c(F)c(F)c2F)nc(C2CCCC2)n1 [6-cyclopentyl-N4-(2,3,4,5,6-pentafluorophenyl)-1,3,5-triazine-2,4-diamine]
Phytotox value on a scale from 0-100 (100 is 100% damage) ([1]; 0.25 g ai/ha): 0
Phytotox value on a scale from 0-100 (100 is 100% damage) ([1]; 0.98 g ai/ha): 23
Phytotox value on a scale from 0-100 (100 is 100% damage) ([1]; 3.91 g ai/ha): 15
Phytotox value on a scale from 0-100 (100 is 100% damage) ([1]; 15.63 g ai/ha): 5
Phytotox value on a scale from 0-100 (100 is 100% damage) ([2]; 0.25 g ai/ha): 5
Phytotox value on a scale from 0-100 (100 is 100% damage) ([2]; 0.98 g ai/ha): 15
Phytotox value on a scale from 0-100 (100 is 100% damage) ([2]; 3.91 g ai/ha): 25
Phytotox value on a scale from 0-100 (100 is 100% damage) ([2]; 15.63 g ai/ha): 15
Phytotox value on a scale from 0-100 (100 is 100% damage) ([3]; 0.25 g ai/ha): 5
Phytotox value on a scale from 0-100 (100 is 100% damage) ([3]; 0.98 g ai/ha): 20
Phytotox value on a scale from 0-100 (100 is 100% damage) ([3]; 3.91 g ai/ha): 25
Phytotox value on a scale from 0-100 (100 is 100% damage) ([3]; 15.63 g ai/ha): 40
Phytotox value on a scale from 0-100 (100 is 100% damage) ([4]; 0.25 g ai/ha): 38
Phytotox value on a scale from 0-100 (100 is 100% damage) ([4]; 0.98 g ai/ha): 80
Phytotox value on a scale from 0-100 (100 is 100% damage) ([4]; 3.91 g ai/ha): 99
Phytotox value on a scale from 0-100 (100 is 100% damage) ([4]; 15.63 g ai/ha): 100
Phytotox value on a scale from 0-100 (100 is 100% damage) ([5]; 0.25 g ai/ha): 0
Phytotox value on a scale from 0-100 (100 is 100% damage) ([5]; 0.98 g ai/ha): 5
Phytotox value on a scale from 0-100 (100 is 100% damage) ([5]; 3.91 g ai/ha): 20
Phytotox value on a scale from 0-100 (100 is 100% damage) ([5]; 15.63 g ai/ha): 40
Relative tolerance rate (non-transgenic = 1.0) [6]: 3
Relative tolerance rate (non-transgenic = 1.0) [7]: 1
Relative tolerance rate (non-transgenic = 1.0) [8]: 1
Relative tolerance rate (non-transgenic = 1.0) [9]: 1
Relative tolerance rate (non-transgenic = 1.0) [10]: 17
Phytotox value on a scale from 0-100 (100 is 100% damage) ([11]; 7.88 g ai/ha): 55
Phytotox value on a scale from 0-100 (100 is 100% damage) ([11]; 15.75 g ai/ha): 58
Phytotox value on a scale from 0-100 (100 is 100% damage) ([11]; 31.5 g ai/ha): 70
Phytotox value on a scale from 0-100 (100 is 100% damage) ([11]; 63 g ai/ha): 78
Phytotox value on a scale from 0-100 (100 is 100% damage) ([12]; 7.88 g ai/ha): 38
Phytotox value on a scale from 0-100 (100 is 100% damage) ([12]; 15.75 g ai/ha): 55
Phytotox value on a scale from 0-100 (100 is 100% damage) ([12]; 31.5 g ai/ha): 65
Phytotox value on a scale from 0-100 (100 is 100% damage) ([12]; 63 g ai/ha): 80
Phytotox value on a scale from 0-100 (100 is 100% damage) ([13]; 7.88 g ai/ha): 45
Phytotox value on a scale from 0-100 (100 is 100% damage) ([13]; 15.75 g ai/ha): 63
Phytotox value on a scale from 0-100 (100 is 100% damage) ([13]; 31.5 g ai/ha): 73
Phytotox value on a scale from 0-100 (100 is 100% damage) ([13]; 63 g ai/ha): 75
Phytotox value on a scale from 0-100 (100 is 100% damage) ([14]; 7.88 g ai/ha): 63
Phytotox value on a scale from 0-100 (100 is 100% damage) ([14]; 15.75 g ai/ha): 70
Phytotox value on a scale from 0-100 (100 is 100% damage) ([14]; 31.5 g ai/ha): 78
Phytotox value on a scale from 0-100 (100 is 100% damage) ([14]; 63 g ai/ha): 93
Phytotox value on a scale from 0-100 (100 is 100% damage) ([15]; 7.88 g ai/ha): 0
Phytotox value on a scale from 0-100 (100 is 100% damage) ([15]; 15.75 g ai/ha): 5
Phytotox value on a scale from 0-100 (100 is 100% damage) ([15]; 31.5 g ai/ha): 35
Phytotox value on a scale from 0-100 (100 is 100% damage) ([15]; 63 g ai/ha): 68
Phytotox value on a scale from 0-100 (100 is 100% damage) ([16]; 7.88 g ai/ha): 68
Phytotox value on a scale from 0-100 (100 is 100% damage) ([16]; 15.75 g ai/ha): 80
Phytotox value on a scale from 0-100 (100 is 100% damage) ([16]; 31.5 g ai/ha): 78
Phytotox value on a scale from 0-100 (100 is 100% damage) ([16]; 63 g ai/ha): 98
Phytotox value on a scale from 0-100 (100 is 100% damage) ([17]; 7.88 g ai/ha): 25
Phytotox value on a scale from 0-100 (100 is 100% damage) ([17]; 15.75 g ai/ha): 65
Phytotox value on a scale from 0-100 (100 is 100% damage) ([17]; 31.5 g ai/ha): 55
Phytotox value on a scale from 0-100 (100 is 100% damage) ([17]; 63 g ai/ha): 73
